According to patent US9175305B2, “Mutant hydroxyphenylpyruvate dioxygenase polypeptides and methods of use” (Syngenta Participations AG, priority 2009, dated 2015):
Values joined by “and” are separate entries in the source; they are usually repeats but may differ in a detail not shown here. Identical values can stand only once. Like-named read-outs stand apart in the source and are kept apart here.

Columns and labels:
Assay in all cases: biochemical
Format in all cases: binding
[1] = biological target: HPPD SEQ ID NO:25 (Avena sativa, UniProt A0ACD5V6K6, DEL109-109/L359A)
[2] = biological target: HPPD SEQ ID NO:22 (Avena sativa, UniProt A0ACD5V6K6, DEL109-109/L256M)
[3] = biological target: HPPD SEQ ID NO:21 (Avena sativa, UniProt A0ACD5V6K6, DEL109-109/I285V)
[4] = biological target: HPPD SEQ ID NO:17 (Avena sativa, UniProt A0ACD5V6K6, DEL109-109/Q298S)
[5] = biological target: HPPD SEQ ID NO:23 (Avena sativa, UniProt A0ACD5V6K6, A242W/DEL109-109); conditions: read-out: kon (k2)
[6] = biological target: HPPD SEQ ID NO:24 (Avena sativa, UniProt A0ACD5V6K6, DEL109-109/L359M)
[7] = biological target: HPPD SEQ ID NO:20 (Avena sativa, UniProt A0ACD5V6K6, DEL109-109/I285S)
[8] = biological target: HPPD SEQ ID NO:16 (Avena sativa, UniProt A0ACD5V6K6, DEL109-109/Q298G)
[9] = biological target: HPPD SEQ ID NO:18 (Avena sativa, UniProt A0ACD5V6K6, DEL109-109/I285T)
[10] = biological target: HPPD SEQ ID NO:14 (Avena sativa, UniProt A0ACD5V6K6, DEL109-109)
Sequence of HPPD SEQ ID NO:14 (A0ACD5V6K6 entry or part of it DEL109-109): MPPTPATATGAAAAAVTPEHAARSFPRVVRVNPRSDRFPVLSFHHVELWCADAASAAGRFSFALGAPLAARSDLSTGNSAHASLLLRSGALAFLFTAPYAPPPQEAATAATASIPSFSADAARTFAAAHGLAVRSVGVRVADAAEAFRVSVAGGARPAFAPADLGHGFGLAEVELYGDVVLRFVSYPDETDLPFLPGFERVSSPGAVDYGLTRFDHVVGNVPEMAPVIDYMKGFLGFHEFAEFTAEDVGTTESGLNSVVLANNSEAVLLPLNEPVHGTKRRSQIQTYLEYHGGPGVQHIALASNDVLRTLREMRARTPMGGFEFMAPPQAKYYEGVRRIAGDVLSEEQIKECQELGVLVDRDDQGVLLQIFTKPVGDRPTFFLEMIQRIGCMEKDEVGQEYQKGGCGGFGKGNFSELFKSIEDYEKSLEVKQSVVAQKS

Sequence of HPPD SEQ ID NO:22 (A0ACD5V6K6 entry or part of it DEL109-109/L256M): as the sequence (A0ACD5V6K6 entry or part of it DEL109-109) above, with L255M counted along it
Sequence of HPPD SEQ ID NO:18 (A0ACD5V6K6 entry or part of it DEL109-109/I285T): as the sequence (A0ACD5V6K6 entry or part of it DEL109-109) above, with I284T counted along it
Sequence of HPPD SEQ ID NO:21 (A0ACD5V6K6 entry or part of it DEL109-109/I285V): as the sequence (A0ACD5V6K6 entry or part of it DEL109-109) above, with I284V counted along it
Sequence of HPPD SEQ ID NO:24 (A0ACD5V6K6 entry or part of it DEL109-109/L359M): as the sequence (A0ACD5V6K6 entry or part of it DEL109-109) above, with L358M counted along it
Sequence of HPPD SEQ ID NO:25 (A0ACD5V6K6 entry or part of it DEL109-109/L359A): as the sequence (A0ACD5V6K6 entry or part of it DEL109-109) above, with L358A counted along it
Sequence of HPPD SEQ ID NO:20 (A0ACD5V6K6 entry or part of it DEL109-109/I285S): as the sequence (A0ACD5V6K6 entry or part of it DEL109-109) above, with I284S counted along it
Sequence of HPPD SEQ ID NO:17 (A0ACD5V6K6 entry or part of it DEL109-109/Q298S): as the sequence (A0ACD5V6K6 entry or part of it DEL109-109) above, with Q297S counted along it
Sequence of HPPD SEQ ID NO:16 (A0ACD5V6K6 entry or part of it DEL109-109/Q298G): as the sequence (A0ACD5V6K6 entry or part of it DEL109-109) above, with Q297G counted along it
Sequence of HPPD SEQ ID NO:23 (A0ACD5V6K6 entry or part of it DEL109-109/A242W): as the sequence (A0ACD5V6K6 entry or part of it DEL109-109) above, with A241W counted along it

COCCOCc1nc(C(F)(F)F)ccc1C(=O)C1C(=O)C2CCC(C2)C1=O (centres unmarked) [Structure C]
Kd [1]: 23 nM | koff ([1]; read-out: koff (k1)): 0.000113 s⁻¹ | kon ([1]; read-out: kon (k2)): 4800 M⁻¹ s⁻¹ | Kd [2]: 23.9 nM | koff ([2]; read-out: koff (k1)): 9e-05 s⁻¹ | kon ([2]; read-out: kon (k2)): 4400 M⁻¹ s⁻¹ | Kd [3]: 11.9 nM | koff ([3]; read-out: koff (k1)): 9e-05 s⁻¹ | kon ([3]; read-out: kon (k2)): 7500 M⁻¹ s⁻¹ | Kd [4]: 7.1 nM | koff ([4]; read-out: koff (k1)): 6.65e-05 s⁻¹ | kon ([4]; read-out: kon (k2)): 9400 M⁻¹ s⁻¹ | kon [5]: 7500 M⁻¹ s⁻¹ | Kd [6]: 16 nM | SEQ ID NO:24 superior to SEQ ID NO:14 (in vitro, in particular off rate data) [6]: neutral | koff ([6]; read-out: koff (k1)): 7.82e-05 s⁻¹ | kon ([6]; read-out: kon (k2)): 4900 M⁻¹ s⁻¹ | Kd [7]: 6.6 nM | koff ([7]; read-out: koff (k1)): 6.6e-05 s⁻¹ | kon ([7]; read-out: kon (k2)): 10100 M⁻¹ s⁻¹ | Kd [8]: 26.7 nM | koff ([8]; read-out: koff (k1)): 0.00012 s⁻¹ | kon ([8]; read-out: kon (k2)): 4500 M⁻¹ s⁻¹ | Kd [9]: 11.9 nM | koff ([9]; read-out: koff (k1)): 9e-05 s⁻¹ | kon ([9]; read-out: kon (k2)): 7500 M⁻¹ s⁻¹ | On rate, activity-based method ([10]; 25° C., enzyme activity-based method): 7800 M⁻¹ s⁻¹ and 7600 M⁻¹ s⁻¹ and 7200 M⁻¹ s⁻¹ and 10000 M⁻¹ s⁻¹ | kon ([10]; 25° C., enzyme activity-based method, read-out: On rate, activity-based method): 7500 M⁻¹ s⁻¹ | Kd/Km ratio ([10]; HPPD SEQ ID NO:14): 0.0017 | Kd ([10]; Kd, estimated from on and off rates, 25° C.): 9.4 nM | koff ([10]; read-out: koff (k1)): 7.04e-05 s⁻¹ | kon ([10]; read-out: kon (k2)): 7500 M⁻¹ s⁻¹
